pKi: −log10 of the molar value.

Experiment [1] can be described thus: Compound was evaluated for inhibition of metallo beta lactamase from Aeromonas hydrophilia AE036. Also noted: species or system Aeromonas hydrophila.
The test system of the next experiment is Aeromonas hydrophila. Put plainly: Compound was evaluated for kinetic data for the inhibition of metallo beta lactamase from Aeromonas hydrophilia AE036.
Experiment [2] can be described thus: Compound was evaluated for inhibition of metallo beta lactamase from bacillus cereus 569H.
The nature of experiment [3]: Compound was evaluated for inhibition of metallo beta lactamase from Pseudomonas aeruginosa 101.
Experiment [4] can be described thus: Compound was evaluated for inhibition of metallo beta lactamase from xanthomonas maltophilia ULA-511. More on the design: species or system Stenotrophomonas maltophilia.
A short description of experiment [5]: Ratio of K+2/K of the compound.

Usually pKi stands for −log10 of the Ki, conventionally taken in molar units. On to `C[C@@H](NC(=O)COc1ccccc1)[C@@H](O)C(F)(F)F`, for which the pKi is 3.66 in experiment [1], 3.15 in experiment [2], 3.40 in experiment [3] and 4.46 in experiment [4]. The k+2 in the experiment with Aeromonas hydrophila is 1.1 s⁻¹. Moreover, the k+2/k in experiment [5] was found to be 5.25 M⁻¹ s⁻¹.
For `O=C(COc1ccccc1)N[C@H](Cc1ccccc1)[C@@H](O)C(F)(F)F`, the pKi in experiment [1] was 4.70; in experiment [2], 4.52; in experiment [3], 4.22; in experiment [4], less than 2.30. This compound also yielded a k+2 with Aeromonas hydrophila of 3.9 s⁻¹. The k+2/k in experiment [5] is 1.9 M⁻¹ s⁻¹.
As for `C[C@H](NC(=O)COc1ccccc1)C(=O)C(F)(F)F`, the pKi in experiment [1] is 4.36; in experiment [2], 3.52; in experiment [3], 3.52; in experiment [4] it was 5.82. Further, the k+2 in the experiment on Aeromonas hydrophila worked out at 4 s⁻¹. The k+2/k in experiment [5] worked out at 9.1 M⁻¹ s⁻¹.
In experiment [2], `O=C(COc1ccccc1)N[C@H](Cc1ccccc1)C(=O)C(F)(F)F` showed a negative logarithm of the Ki (pKi) of 3.00.
`C[C@H](NC(=O)COc1ccccc1)[C@@H](O)C(F)(F)F`: the pKi in experiment [2] is 2.52; in experiment [3], 3.40; in experiment [4], less than 2.30.
Take `C[C@@H](NC(=O)COc1ccccc1)C(=O)C(F)(F)F`: the pKi in experiment [1] is 4.96; in experiment [2], 3.15; in experiment [3] it was 3.30; in experiment [4], 5.52. The same compound had a k+2 with Aeromonas hydrophila of 1 s⁻¹. The k+2/k in experiment [5] stood at 9.1 M⁻¹ s⁻¹.
Regarding `O=C(COc1ccccc1)N[C@@H](Cc1ccccc1)C(=O)C(F)(F)F`, the pKi is 5.22 in experiment [1], 3.30 in experiment [2], 3.28 in experiment [3] and 4.82 in experiment [4]. The compound also had a k+2 in the experiment with Aeromonas hydrophila of 4.3 s⁻¹. Further, the k+2/k in experiment [5] was 7.2 M⁻¹ s⁻¹.
Consider `O=C(COc1ccccc1)N[C@@H](Cc1ccccc1)[C@@H](O)C(F)(F)F`, for which the pKi in experiment [1] was 4.72; in experiment [2], 3.00; in experiment [3], 3.05; in experiment [4], less than 2.30. The compound also yielded a k+2 in the experiment on Aeromonas hydrophila of 4.3 s⁻¹. Also, in experiment [5], the k+2/k stood at 2.3 M⁻¹ s⁻¹.

The record behind these values is ChEMBL document CHEMBL1129199, “Trifluoromethyl alcohol and ketone inhibitors of metallo--lactamases” (Bioorg Med Chem Lett, 1996).
